According to ChEMBL document CHEMBL4507281, “Data for DCP probe BI-4394” (2021):

Assays:
Details in all cases: Compound concentration 10.0 uM
[1] = molecular target: Histamine H2 receptor (Homo sapiens) (UniProt P25021)
[2] = molecular target: Dual specificity mitogen-activated protein kinase kinase 1 (Homo sapiens) (UniProt Q02750)
[3] = molecular target: Beta-1 adrenergic receptor (Homo sapiens) (UniProt P08588)
[4] = molecular target: Proto-oncogene tyrosine-protein kinase Src (Homo sapiens) (UniProt P12931)
Sequence of Proto-oncogene tyrosine-protein kinase Src (Homo sapiens) (P12931 2-536 limits assumed): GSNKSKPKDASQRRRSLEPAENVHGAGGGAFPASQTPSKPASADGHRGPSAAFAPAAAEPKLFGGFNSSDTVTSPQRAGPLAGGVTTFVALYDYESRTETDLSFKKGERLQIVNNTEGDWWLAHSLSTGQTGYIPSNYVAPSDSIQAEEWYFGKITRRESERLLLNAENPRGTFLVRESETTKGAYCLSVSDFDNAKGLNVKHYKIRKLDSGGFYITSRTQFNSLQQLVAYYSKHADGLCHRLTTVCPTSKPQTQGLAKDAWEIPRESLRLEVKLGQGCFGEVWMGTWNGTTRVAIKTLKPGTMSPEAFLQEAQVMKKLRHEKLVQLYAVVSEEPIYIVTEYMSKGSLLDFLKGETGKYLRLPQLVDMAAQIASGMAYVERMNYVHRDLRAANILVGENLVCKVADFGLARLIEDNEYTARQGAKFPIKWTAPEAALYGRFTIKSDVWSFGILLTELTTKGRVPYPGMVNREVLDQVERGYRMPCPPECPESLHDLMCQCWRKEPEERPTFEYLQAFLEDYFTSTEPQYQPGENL

[5] = molecular target: Casein kinase I isoform gamma-2 (Homo sapiens) (UniProt P78368)
Sequence of Casein kinase I isoform gamma-2 (Homo sapiens) (P78368 whole entry, looked up, canonical isoform): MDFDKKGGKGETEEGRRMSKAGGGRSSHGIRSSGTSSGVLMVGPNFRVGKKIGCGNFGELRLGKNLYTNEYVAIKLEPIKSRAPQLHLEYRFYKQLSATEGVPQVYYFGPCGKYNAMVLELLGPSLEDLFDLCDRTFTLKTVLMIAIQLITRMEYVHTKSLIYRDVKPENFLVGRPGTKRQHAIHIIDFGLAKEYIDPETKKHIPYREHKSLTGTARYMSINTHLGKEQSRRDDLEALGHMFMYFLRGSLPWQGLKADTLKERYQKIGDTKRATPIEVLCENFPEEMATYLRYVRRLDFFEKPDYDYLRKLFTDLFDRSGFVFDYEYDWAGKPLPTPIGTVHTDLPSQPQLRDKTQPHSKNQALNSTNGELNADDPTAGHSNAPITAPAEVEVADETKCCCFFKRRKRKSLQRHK

[6] = molecular target: Insulin receptor (Homo sapiens) (UniProt P06213)
Sequence of Insulin receptor (Homo sapiens) (P06213 28-758 limits assumed): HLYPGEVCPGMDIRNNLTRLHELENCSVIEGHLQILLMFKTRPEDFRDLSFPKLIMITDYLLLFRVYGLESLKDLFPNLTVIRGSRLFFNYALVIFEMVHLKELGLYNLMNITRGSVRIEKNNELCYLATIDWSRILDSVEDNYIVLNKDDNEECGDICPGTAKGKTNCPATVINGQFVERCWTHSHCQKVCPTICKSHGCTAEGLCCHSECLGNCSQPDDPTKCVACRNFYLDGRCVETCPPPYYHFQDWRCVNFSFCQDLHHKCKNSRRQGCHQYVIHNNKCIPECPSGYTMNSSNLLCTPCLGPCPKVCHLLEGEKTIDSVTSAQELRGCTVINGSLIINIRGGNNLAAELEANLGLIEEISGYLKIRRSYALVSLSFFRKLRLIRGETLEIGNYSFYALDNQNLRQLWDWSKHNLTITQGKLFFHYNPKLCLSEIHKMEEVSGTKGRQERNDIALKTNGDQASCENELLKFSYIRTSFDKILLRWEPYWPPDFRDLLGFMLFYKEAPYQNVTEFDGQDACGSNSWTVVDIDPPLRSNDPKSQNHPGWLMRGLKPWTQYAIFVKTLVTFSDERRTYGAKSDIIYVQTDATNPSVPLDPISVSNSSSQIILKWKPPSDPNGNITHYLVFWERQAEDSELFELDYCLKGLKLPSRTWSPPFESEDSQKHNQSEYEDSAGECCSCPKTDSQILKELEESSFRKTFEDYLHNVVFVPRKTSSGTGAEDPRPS
Sequence of Insulin receptor (Homo sapiens) (P06213 763-1382 limits assumed): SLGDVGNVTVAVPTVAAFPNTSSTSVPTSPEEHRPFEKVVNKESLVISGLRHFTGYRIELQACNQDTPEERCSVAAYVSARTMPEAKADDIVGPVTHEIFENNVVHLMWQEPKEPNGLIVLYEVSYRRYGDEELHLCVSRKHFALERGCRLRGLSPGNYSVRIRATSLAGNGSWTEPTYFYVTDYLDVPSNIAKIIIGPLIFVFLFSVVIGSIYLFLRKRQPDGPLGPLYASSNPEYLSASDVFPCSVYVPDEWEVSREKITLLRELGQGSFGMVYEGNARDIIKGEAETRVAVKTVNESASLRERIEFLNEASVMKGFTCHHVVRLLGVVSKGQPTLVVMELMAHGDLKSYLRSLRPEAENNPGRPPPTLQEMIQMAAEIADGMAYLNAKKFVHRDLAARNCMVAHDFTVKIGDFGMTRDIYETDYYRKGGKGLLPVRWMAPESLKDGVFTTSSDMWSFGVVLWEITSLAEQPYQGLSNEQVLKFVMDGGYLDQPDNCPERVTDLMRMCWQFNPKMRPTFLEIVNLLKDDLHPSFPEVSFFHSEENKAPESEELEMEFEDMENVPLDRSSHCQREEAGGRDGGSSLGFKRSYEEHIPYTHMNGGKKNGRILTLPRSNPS

[7] = molecular target: Platelet-derived growth factor receptor beta (Homo sapiens) (UniProt P09619)
Sequence of Platelet-derived growth factor receptor beta (Homo sapiens) (P09619 whole entry): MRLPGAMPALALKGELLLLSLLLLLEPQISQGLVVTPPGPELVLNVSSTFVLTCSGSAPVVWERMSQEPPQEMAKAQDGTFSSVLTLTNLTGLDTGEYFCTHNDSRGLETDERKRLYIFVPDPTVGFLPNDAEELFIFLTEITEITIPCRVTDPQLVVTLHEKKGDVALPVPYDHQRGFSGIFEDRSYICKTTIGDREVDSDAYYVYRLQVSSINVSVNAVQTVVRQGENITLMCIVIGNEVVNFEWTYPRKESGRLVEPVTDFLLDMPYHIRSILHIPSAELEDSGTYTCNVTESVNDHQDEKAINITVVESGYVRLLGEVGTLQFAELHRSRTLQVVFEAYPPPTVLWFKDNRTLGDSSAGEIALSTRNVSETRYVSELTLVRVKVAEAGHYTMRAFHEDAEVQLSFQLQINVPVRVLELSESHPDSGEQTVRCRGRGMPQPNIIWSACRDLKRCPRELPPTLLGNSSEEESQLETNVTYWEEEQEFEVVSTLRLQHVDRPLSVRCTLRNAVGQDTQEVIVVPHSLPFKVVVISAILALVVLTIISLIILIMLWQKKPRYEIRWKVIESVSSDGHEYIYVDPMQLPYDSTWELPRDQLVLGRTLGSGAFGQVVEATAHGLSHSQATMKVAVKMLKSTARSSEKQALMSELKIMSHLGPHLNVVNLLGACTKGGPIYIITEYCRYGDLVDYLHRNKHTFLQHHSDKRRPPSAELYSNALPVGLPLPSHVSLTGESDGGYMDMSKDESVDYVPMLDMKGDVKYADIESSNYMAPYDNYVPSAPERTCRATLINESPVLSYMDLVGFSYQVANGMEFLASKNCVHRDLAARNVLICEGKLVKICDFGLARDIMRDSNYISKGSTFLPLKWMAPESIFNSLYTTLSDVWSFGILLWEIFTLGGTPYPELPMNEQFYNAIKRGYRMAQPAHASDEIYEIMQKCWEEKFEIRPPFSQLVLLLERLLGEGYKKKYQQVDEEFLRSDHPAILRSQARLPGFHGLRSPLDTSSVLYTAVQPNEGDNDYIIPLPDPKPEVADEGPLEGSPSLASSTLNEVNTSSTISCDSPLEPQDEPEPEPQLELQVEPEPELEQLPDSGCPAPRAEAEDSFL

[8] = molecular target: Protein kinase C beta type (Homo sapiens) (UniProt P05771)

Sequence of Beta-1 adrenergic receptor (Homo sapiens) (P08588 whole entry, looked up): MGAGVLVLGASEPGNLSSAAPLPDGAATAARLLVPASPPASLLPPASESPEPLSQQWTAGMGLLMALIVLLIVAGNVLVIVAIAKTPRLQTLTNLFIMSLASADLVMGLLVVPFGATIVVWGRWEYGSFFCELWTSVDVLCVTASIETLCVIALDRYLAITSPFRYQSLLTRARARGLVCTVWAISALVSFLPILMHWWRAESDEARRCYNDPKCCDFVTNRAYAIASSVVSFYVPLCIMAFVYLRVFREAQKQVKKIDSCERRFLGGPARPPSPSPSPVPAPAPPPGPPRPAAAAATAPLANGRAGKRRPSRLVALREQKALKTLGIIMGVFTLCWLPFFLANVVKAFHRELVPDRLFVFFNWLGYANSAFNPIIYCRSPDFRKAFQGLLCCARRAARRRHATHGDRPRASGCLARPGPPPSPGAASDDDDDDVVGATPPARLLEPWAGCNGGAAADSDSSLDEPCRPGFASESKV
Sequence of Dual specificity mitogen-activated protein kinase kinase 1 (Homo sapiens) (Q02750 whole entry): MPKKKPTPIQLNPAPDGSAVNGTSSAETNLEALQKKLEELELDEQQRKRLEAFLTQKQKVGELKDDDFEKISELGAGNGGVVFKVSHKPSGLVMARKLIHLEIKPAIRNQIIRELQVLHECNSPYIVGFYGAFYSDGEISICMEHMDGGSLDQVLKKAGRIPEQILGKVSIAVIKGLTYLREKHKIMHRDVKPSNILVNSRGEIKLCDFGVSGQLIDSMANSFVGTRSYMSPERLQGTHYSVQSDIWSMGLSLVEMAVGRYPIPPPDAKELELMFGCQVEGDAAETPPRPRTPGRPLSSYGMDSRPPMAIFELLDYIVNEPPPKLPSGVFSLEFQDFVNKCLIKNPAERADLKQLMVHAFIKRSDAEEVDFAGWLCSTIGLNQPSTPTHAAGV
Sequence of Histamine H2 receptor (Homo sapiens) (P25021 whole entry): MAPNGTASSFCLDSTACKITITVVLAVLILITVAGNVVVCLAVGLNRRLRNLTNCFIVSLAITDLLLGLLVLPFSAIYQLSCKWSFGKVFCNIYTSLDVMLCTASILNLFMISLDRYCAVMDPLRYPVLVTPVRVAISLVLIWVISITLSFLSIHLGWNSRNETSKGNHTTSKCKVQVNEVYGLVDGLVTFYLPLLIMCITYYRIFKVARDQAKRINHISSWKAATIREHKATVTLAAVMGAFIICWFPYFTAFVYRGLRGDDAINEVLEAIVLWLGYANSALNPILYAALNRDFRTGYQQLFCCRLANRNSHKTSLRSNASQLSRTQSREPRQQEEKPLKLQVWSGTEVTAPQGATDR

SMILES	inhibition [1]	residual activity [2]	inhibition [3]	residual activity [4]	residual activity [5]	residual activity [6]	residual activity [7]	residual activity [8]
Cn1nc(C(=O)NCc2ccc(C(=O)O)cc2)cc1-c1ccc2[nH]ccc2c1 [BI 4395]	8.57%	–	–	–	–	–	–	–
CCOC(=O)c1cc2cc(-c3cc(C(=O)NCc4ccc(C(=O)O)cc4)nn3C)ccc2[nH]1 [BI 4394]	–	78%	-5.04%	25%	61%	98%	96%	97%
